As usually defined, the IC50 is the concentration at which inhibition is half-maximal.

The test has as its target T1, CDK2/cyclin A (Homo sapiens, UniProt P24941).
T1 construct: made in house; host or cells: insect ('worm') cells co-infected with baculoviruses
The test can be described thus: CDK2 inhibitory activity (CDK2/cyclin A, [gamma-32P] ATP, histon H1 or Rb protein substrate). As to conditions: first IC50 column (c1) of Table 1. Type of test: biochemical. The source says:
CDK2 enzyme was obtained from either extract from the worm cell co-infected with baculovirus which expresses a CDK2 gene and baculovirus which expresses a cyclin A gene, or active enzyme purified therefrom. CDK4 was also obtained from either extract from the worm cell co-infected with baculovirus which expresses a CDK4 gene and baculovirus which expresses a cyclin D1 gene. As substrates, histon H1 or Rb protein was used for CDK2, and Rb protein for CDK4. The radioactive activities in substrates were determined by reacting compounds diluted with each concentration with a proper quantity of CDK2/cyclin A or CDK4/cyclin D1 and substrate protein, and [gamma-32P labeled] ATP, and then separating the substrates.
Inhibitory abilities of inhibitors according to the present invention for each enzyme activity were expressed as IC50 values, which were determined in accordance with the method as described above.
Turning to `O=C(CN1CCc2ccccc2C1)Nc1n[nH]c2ccc(N3CCCS3(=O)=O)cc12` [Compound 49, 2-[3,4-dihydro-2(1H)-isoquinolinyl]-N-[5-(1,1-dioxo-1λ^6-isothiazolidin-2-yl)-1H-indazol-3-yl]acetamide], the IC50 is below 1000 nM.
The compound `CC(=O)Nc1nc(CC(=O)Nc2n[nH]c3ccc(N4CCCS4(=O)=O)cc23)cs1` [Compound 76] registered an IC50 below 10000 nM.
The compound `O=C(Cc1ccc2c(c1)OCO2)Nc1n[nH]c2ccc(N3CCCS3(=O)=O)cc12` [Compound 15, 2-(1,3-benzodioxol-5-yl)-N-[5-(1,1-dioxo-1λ^6-isothiazolidin-2-yl)-1H-indazole-3-yl]acetamide] registered an IC50 below 50 nM.
For `CCC(C(=O)Nc1n[nH]c2ccc(N3CCCS3(=O)=O)cc12)c1ccccc1` (stereo not drawn) [Compound 57, N-[5-(1,1-dioxo-1λ^6-isothiazolidin-2-yl)-1H-indazol-3-yl]-2-phenylbutanamide] the value was below 100000 nM; for `O=C(Cc1ccc(F)cc1)Nc1n[nH]c2ccc(N3CCCS3(=O)=O)cc12` [Compound 9, N-[5-(1,1-dioxo-1λ^6-isothiazolidin-2-yl)-1H-indazol-3-yl]-2-(4-fluorophenyl)acetamide], below 50 nM; for `O=C(Cc1cccc(Br)c1)Nc1n[nH]c2ccc(N3CCCS3(=O)=O)cc12` [Compound 11, 2-(3-bromophenyl)-N-[5-(1,1-dioxo-1λ^6-isothiazolidin-2-yl)-1H-indazol-3-yl]acetamide], below 50 nM.
With `COc1ccc(N2CCN(CC(=O)Nc3n[nH]c4ccc(N5CCCS5(=O)=O)cc34)CC2)cc1` [Compound 51, N-[5-(1,1-dioxo-1λ^6-isothiazolidin-2-yl)-1H-indazol-3-yl]-2-[4-(4-methoxyphenyl)-1-piperazinyl]acetamide], the half-inhibitory concentration (IC50) is below 10000 nM.
The figure for `CCOCCOCCOc1ccc(CC(=O)Nc2n[nH]c3ccc(N4CCCS4(=O)=O)cc23)cc1` [Compound 59, N-[5-(1,1-dioxo-1λ^6-isothiazolidin-2-yl)-1H-indazol-3-yl]-2-4-[2-(2-ethoxyethoxy)ethoxy]phenylacetamide] is below 100 nM.
The compound `CCOc1cccc(CC(=O)Nc2n[nH]c3ccc(N4CCCS4(=O)=O)cc23)c1` [Compound 78, N-[5-(1,1-dioxo-1λ^6-isothiazolidin-2-yl)-1H-indazol-3-yl]-2-(3-ethoxyphenyl)acetamide] gave a 50% inhibitory concentration (IC50) below 50 nM.
Compound `COc1ccc(CC(=O)Nc2n[nH]c3ccc(N4CCCS4(=O)=O)cc23)cc1` [Compound 38, N-[5-(1,1-dioxo-1λ^6-isothiazolidin-2-yl)-1H-indazol-3-yl]-2-(4-methoxyphenyl)acetamide] gave an IC50 below 100 nM.
The figure for `O=C(Cc1cccc2ccccc12)Nc1n[nH]c2ccc(N3CCCS3(=O)=O)cc12` [Compound 16, N-[5-(1,1-dioxo-1λ^6-isothiazolidin-2-yl)-1H-indazol-3-yl]-2-(1-naphthyl)acetamide] is below 50 nM; for `CCOc1ccc(CC(=O)Nc2n[nH]c3ccc(N4CCCS4(=O)=O)cc23)cc1[N+](=O)[O-]` [Compound 67, N-[5-(1,1-dioxo-1λ^6-isothiazolidin-2-yl)-1H-indazol-3-yl]-2-(4-ethoxy-3-nitrophenyl)acetamide] it is below 50 nM.
Turning to `CC(C)c1ccc(CC(=O)Nc2n[nH]c3ccc(N4CCCS4(=O)=O)cc23)cc1` [Compound 26, N-[5-(1,1-dioxo-1λ^6-isothiazolidin-2-yl)-1H-indazol-3-yl]-2-(4-isopropylphenyl)acetamide], the IC50 is below 50 nM.
In turn, `CCN(CC)c1nc(CC(=O)Nc2n[nH]c3ccc(N4CCCS4(=O)=O)cc23)cs1` [Compound 65, 2-[2-(diethylamino)-1,3-thiazol-4-yl]-N-[5-(1,1-dioxo-1λ^6-isothiazolidin-2-yl)-1H-indazol-3-yl]acetamide] gave an IC50 below 500 nM.
For `O=C(Cc1ccc(OCc2ccccc2)cc1)Nc1n[nH]c2ccc(N3CCCS3(=O)=O)cc12` [Compound 3, 2-[4-(benzyloxy)phenyl]-N-[5-(1,1-dioxo-1λ^6-isothiazolidin-2-yl)-1H-indazol-3-yl]acetamide] the value was below 100 nM; for `CC(=NO)Nc1n[nH]c2ccc(N3CCCS3(=O)=O)cc12` [Compound 23, N-[5-(1,1-dioxo-1λ^6-isothiazolidin-2-yl)-1H-indazol-3-yl]-N′-hydroxyethaneimidoamide], below 100000 nM; for `CSc1ccc(CC(=O)Nc2n[nH]c3ccc(N4CCCS4(=O)=O)cc23)cc1` [Compound 20, N-[5-(1,1-dioxo-1λ^6-isothiazolidin-2-yl)-1H-indazol-3-yl]-2-[4-(methylsulfanil)phenyl]acetamide], below 50 nM.
`O=S1(=O)CCCN1c1ccc2[nH]nc(NC(Cc3ccccc3)=NO)c2c1` [Compound 14, N-[5-(1,1-dioxo-1λ^6-isothiazolidin-2-yl)-1H-indazol-3-yl]-N′-hydroxy-2-phenylethaneimidoamide] gave an IC50 below 10000 nM.
With `CCOc1ccc(CC(=O)Nc2n[nH]c3ccc(N4CCCS4(=O)=O)cc23)cc1S(N)(=O)=O` [Compound 80, 2-[3-(aminosulfonyl)-4-ethoxyphenyl]-N-[5-(1,1-dioxo-1λ^6-isothiazolidin-2-yl)-1H-indazol-3-yl]acetamide], the IC50 is below 1000 nM.
For `CCOc1ccc(CC(=O)Nc2n[nH]c3ccc(N4CCCS4(=O)=O)cc23)cc1S(=O)(=O)N1CCOCC1` [Compound 79, N-[5-(1,1-dioxo-1λ^6-isothiazolidin-2-yl)-1H-indazol-3-yl]-2-[4-ethoxy-3-(4-morpholinylsulfonyl)phenyl]acetamide], the IC50 is below 1000 nM.
The figure for `O=C(Cc1ccc(O)cc1)Nc1n[nH]c2ccc(N3CCCS3(=O)=O)cc12` [Compound 4, N-[5-(1,1-dioxo-1λ^6-isothiazolidin-2-yl)-1H-indazol-3-yl]-2-(4-hydroxyphenyl)acetamide] is below 50 nM; for `CCNc1ccc(CC(=O)Nc2n[nH]c3ccc(N4CCCS4(=O)=O)cc23)cc1` [Compound 72, N-[5-(1,1-dioxo-1λ^6-isothiazolidin-2-yl)-1H-indazol-3-yl]-2-[4-(ethylamino)phenyl]acetamide] it is below 50 nM; for `O=C(Cc1ccc2ccccc2c1)Nc1n[nH]c2ccc(N3CCCS3(=O)=O)cc12` [Compound 17, N-[5-(1,1-dioxo-1λ^6-isothiazolidin-2-yl)-1H-indazol-3-yl]-2-(2-naphthyl)acetamide] it is below 50 nM.
As for `CNc1ccc(CC(=O)Nc2n[nH]c3ccc(N4CCCS4(=O)=O)cc23)cc1` [Compound 6, N-[5-(1,1-dioxo-1λ^6-isothiazolidin-2-yl)-1H-indazol-3-yl]-2-[4-(methylamino)phenyl]acetamide], the IC50 is below 50 nM.
For `CC(=O)Nc1n[nH]c2ccc(N3CCCS3(=O)=O)cc12` [Compound 19, N-[5-(1,1-dioxo-1λ^6-isothiazolidin-2-yl)-1H-indazol-3-yl]acetamide] the value was above 100000 nM; for `Cc1ccccc1CC(=O)Nc1n[nH]c2ccc(N3CCCS3(=O)=O)cc12` [Compound 68, N-[5-(1,1-dioxo-1λ^6-isothiazolidin-2-yl)-1H-indazol-3-yl]-2-(2-methylphenyl)acetamide], below 100 nM.
The compound `O=C(Cc1cccc([N+](=O)[O-])c1)Nc1n[nH]c2ccc(N3CCCS3(=O)=O)cc12` [Compound 18, N-[5-(1,1-dioxo-1λ^6-isothiazolidin-2-yl)-1H-indazol-3-yl]-2-(3-nitrophenyl)acetamide] registered an IC50 below 50 nM.
